Experimental findings from ChEMBL document CHEMBL3879897, “1,4-dithiin and 1,4-dithiepin-1,1,4,4, tetroxide derivatives useful as antagonists of the human galanin receptor” (2002) are described below.

What all share (type): subcellular
Assay [1] concerns the target T1, Galanin receptor type 1 (Rattus norvegicus) (UniProt Q62805).
T1 sequence (whole entry): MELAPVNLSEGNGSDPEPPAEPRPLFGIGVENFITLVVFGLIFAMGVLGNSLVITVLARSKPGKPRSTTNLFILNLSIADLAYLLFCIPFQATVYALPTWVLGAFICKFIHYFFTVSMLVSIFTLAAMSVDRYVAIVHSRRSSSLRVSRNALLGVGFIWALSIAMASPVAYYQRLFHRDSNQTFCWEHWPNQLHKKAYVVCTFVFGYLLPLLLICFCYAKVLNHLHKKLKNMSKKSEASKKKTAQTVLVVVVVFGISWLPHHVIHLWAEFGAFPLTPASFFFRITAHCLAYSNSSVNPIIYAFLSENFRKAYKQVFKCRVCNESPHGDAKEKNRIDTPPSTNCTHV
The experiment in a line: Antagonist activity at galanin -1 receptor in rat brain synaptosomes assessed as galanin-mediated suppression of K+-Krebs-ringer solution-induced [3H]-acetylcholine secretion at 1 uM measured 10 mins post 30 sces superfusing with K+-Krebs-ringer solution by liquid scintillation spectrometric method (reference value: […]%).

In assay [2] the target is T1, Galanin receptor type 1 (Rattus norvegicus). Kind of assay: Antagonist activity at galanin -1 receptor in rat brain synaptosomes assessed as galanin-mediated suppression of basal [3H]-acetylcholine secretion at 10 uM measured 10 mins post 30 sces superfusing with K+-Krebs-ringer solution by liquid scintillation spectrometric method (reference value: […]%).
Assay [3] shares this target. The experiment in a line: Antagonist activity at galanin -1 receptor in rat brain synaptosomes assessed as galanin-mediated suppression of basal [3H]-acetylcholine secretion at 1 uM measured 10 mins post 30 sces superfusing with K+-Krebs-ringer solution by liquid scintillation spectrometric method (reference value: […]%).
Assay [4] has the same target. Kind of assay: Antagonist activity at galanin -1 receptor in rat brain synaptosomes assessed as galanin-mediated suppression of K+-Krebs-ringer solution-induced [3H]-acetylcholine secretion at 10 uM measured 10 mins post 30 sces superfusing with K+-Krebs-ringer solution by liquid scintillation spectrometric method (reference value: […]%).

The structures appear in SMILES notation.

As a reminder, the inhibition is how much of the control response was suppressed. Regarding `O=S1(=O)C=C(c2cccc(F)c2)S(=O)(=O)CCC1`, the values for the inhibition in assay [1], in assay [2] and in assay [3] were 23.9%, 37% and 38.9%, respectively.
Consider `O=S1(=O)C=C(c2ccc(I)cc2)S(=O)(=O)CCC1`, for which the inhibition in assay [1] was 35.2%; in assay [2] it was 37%; in assay [3], 39.2%; in assay [4], 22.3%.
